B1: human recombinant Ang1: Human recombinant angiopoietin 1, positive control for Tie2 and MAPK activation (protein)
chain: SNQRRSPENSGRRYNRIQHGQCAYTFILPEHDGNCRESTTDQYNTNALQRDAPHVEPDFSSQKLQHLEHVMENYTQWLQKLENYIVENMKSEMAQIQQNAVQNHTATMLEIGTSLLSQTAEQTRKLTDVETQVLNQTSRLEIQLLENSLSTYKLEKQLLQQTNEILKIHEKNSLLEHKILEMEGKHKEELDTLKEEKENLQGLVTRQTYIIQELEKQLNRATTNNSVLQKQQLELMDTVHNLVNLCTKEGVLLKGGKREEEKPFRDCADVYQAGFNKSGIYTIYINNMPEPKKVFCNMDVNGGGWTVIQHREDGSLDFQRGWKEYKMGFGNPSGEYWLGNEFIFAITSQRQYMLRIELMDWEGNRAYSQYDRFHIGNEKQNYRLYLKGHTGTAGKQSSLILHGADFSTKDADNDNCMCKCALMLTGGWWFDACGPSNLNGMFYTAGQNHGKLNGIKWHYFKGPSYSLRSTTMMIRPLDF

How the values were obtained:
[1] = tested on: histamine-induced vascular leakage; test: Cutaneous histamine challenge, Evans blue dye extravasation; format: in vivo, male FVB mice
Description: 10-week old male FVB mice were purchased from Jackson Laboratories. Mice were housed in a Vivarium on a standard light:dark cycle and were given free access to food and water. On day 0 mice were anesthetized with isoflurane and the entire dorsal area was shaved with an electric shaver. Residual hair was removed via application of depilatory cream. Residual cream was removed with sterile gauze and water. […] Immediately following Evans blue dye administration, and while still under anesthesia, a single PBS injection (dorsal, intradermal, 50 ul) and three equally spaced histamine injections (dorsal, intradermal, 1.25 ug contained in 50 ul) were applied. Once the intradermal injections were complete, the mice were removed from anesthesia and were placed back into their housing cages for 25 minutes.
Cardiac transperfusion After 25 minutes of exposure to histamine the mice were placed under anesthesia with an appropriate volume of 2.5% avertin (100 ul/10 g body weight via intraperitoneal injection). Once a deep plane of anesthesia was produced the mice were place and secured in a supine position, the chest was surgically opened, the heart was exposed and a catheter terminating in a 23 gauge needle was inserted into the left ventricle. Once the catheter was securely in place, a cut in the right atria was performed and 25 ml of cold PBS was delivered, via the catheter at 100 mmHg to flush out all intravascular Evans blue dye. Once a mouse was effectively perfused the dorsal skin was surgically removed. Four, 12 mm skin biopsies were collected (1PBS, 3 histamine) for each mouse using a standardized skin punch. In all cases, the biopsy that received PBS served as a baseline control for that individual mouse.
Quantification of Evans blue dye extravassation Skin biopsies were placed in labelled tubes and placed in a 60 degree Celsius oven for 16 hrs to removed all moisture. […] An Evans blue dye standard curve encompassing high and low experimental data points was constructed such that the amount of Evans blue dye extravassation (ug/g of skin) could be calculated.

MAPK (Erk2) = test: MAPK phosphorylation ELISA in HUVEC; format: cell-based, human; settings: HUVEC stimulation
Procedure: HUVECs were cultured as above. Lyates were prepared in (1 mM EDTA, 0.5% Triton X-100, 6M urea, 5 mM NaF, 100 uM PMSF, 25 mM sodium pyrophosphate, 1 mM sodium orthovanadate, pH 7.2-7.4, 1× cOmplete™ mini EDTA-free protease inhibitor). BCA protein concentration kit was used to measure protein concentration of each lysate as per manufacturer's instructions (Thermo Scientific). Samples were subjected to ELISAs that measured phosphorylated MAPK and total MAPK levels according to the manufacturer's protocol (R&D Systems). 20 μg or 10 μg of protein from each sample was loaded in duplicate for phosphorylated MAPK and total MAPK readings respectively. Phosphorylated MAPK:total MAPK ratios were determined for each sample. The level of MAPK phosphorylation for all treatment groups were then normalized to that of the no treatment group (NT, EBM only) in each experiment.

[2] = tested on: Influenza A virus HKx31 (H3N2); settings: 100 ng/mouse/day; Sugiyama M G et al, 2015; cited from earlier work
[3] = tested on: Influenza A virus HKx31 (H3N2); format: in vivo, C57BL/6J mice; settings: mouse, in vivo
Tie2 receptor [4] = test: Tie2 phosphorylation ELISA in primary canine aortic endothelial cells; format: cell-based; settings: positive control
Procedure: Canine primary aortic endothelial cells (Cell Biologics) were grown in Complete canine endothelial cell medium/w kit (Cell Biologics) in 20% O2, 5% CO2 and 37° C. humidified chamber and split 1:3 once reaching 80-90% confluency. Tie2 activation studies performed on primary cynomolgus monkey glomerular endothelial cells were performed according to approaches detailed above for the rat primary glomerular endothelial cell studies.

Tie2 receptor [5] = biological target: T1, Tie2 receptor (Rattus norvegicus, UniProt A0A8I5ZW61); test: Tie2 phosphorylation ELISA in primary rat glomerular endothelial cells; format: cell-based; settings: positive control
T1 construct: host or cells: primary rat glomerular endothelial cells
Procedure: Rat primary glomerular endothelial cells (Cell Biologics) were grown in Complete rat endothelial cell medium/w kit (Cell Biologics) in 20% O2, 5% CO2 and 37° C. humidified chamber and split 1:3 once reaching 80-90% confluency. To examine the activation of Tie2 by MPA-Br in rat kidney glomerular endothelial cells, 95-100% confluent cells were stimulated with indicated concentrations of the test agent in serum-containing media for 15 minutes. Human Ang-1 (R&D Systems) was used as positive control. Cell lysates were collected using lysis buffer IC12 (detailed above) recommended in Human phospho-Tie-2 ELISA kit (R&D Systems), tyrosine-phosphorylated Tie2 and total Tie2 were measured using ELISA (Human phospho-Tie2 and total-Tie2 ELISA kits, R&D Systems) with substitution of capture antibody validated for rat Tie2. Mouse anti-Tie2 antibody (BD Pharmingen™) and rabbit TEK polyclonal antibody (MyBioSource) were used as capture antibody in pTie2 and total Tie2 ELISA, respectively. The level of Tie2 phosphorylation for all treatment groups was then normalized to that of the no treatment group (NT, complete rat endothelial cell medium) in each experiment.

Tie2 receptor [6] = test: Tie2 phosphorylation ELISA in primary cynomolgus monkey glomerular endothelial cells; format: cell-based; settings: positive control
Procedure: Primary cynomolgus monkey glomerular endothelial cells (Cell Biologics) were cultured according to details provided above for HMVEC^tert. Tie2 activation studies performed on primary cynomolgus monkey glomerular endothelial cells were performed according to approaches detailed above for the rat primary glomerular endothelial cell studies.

T1 sequence (A0A8I5ZW61 20-1121): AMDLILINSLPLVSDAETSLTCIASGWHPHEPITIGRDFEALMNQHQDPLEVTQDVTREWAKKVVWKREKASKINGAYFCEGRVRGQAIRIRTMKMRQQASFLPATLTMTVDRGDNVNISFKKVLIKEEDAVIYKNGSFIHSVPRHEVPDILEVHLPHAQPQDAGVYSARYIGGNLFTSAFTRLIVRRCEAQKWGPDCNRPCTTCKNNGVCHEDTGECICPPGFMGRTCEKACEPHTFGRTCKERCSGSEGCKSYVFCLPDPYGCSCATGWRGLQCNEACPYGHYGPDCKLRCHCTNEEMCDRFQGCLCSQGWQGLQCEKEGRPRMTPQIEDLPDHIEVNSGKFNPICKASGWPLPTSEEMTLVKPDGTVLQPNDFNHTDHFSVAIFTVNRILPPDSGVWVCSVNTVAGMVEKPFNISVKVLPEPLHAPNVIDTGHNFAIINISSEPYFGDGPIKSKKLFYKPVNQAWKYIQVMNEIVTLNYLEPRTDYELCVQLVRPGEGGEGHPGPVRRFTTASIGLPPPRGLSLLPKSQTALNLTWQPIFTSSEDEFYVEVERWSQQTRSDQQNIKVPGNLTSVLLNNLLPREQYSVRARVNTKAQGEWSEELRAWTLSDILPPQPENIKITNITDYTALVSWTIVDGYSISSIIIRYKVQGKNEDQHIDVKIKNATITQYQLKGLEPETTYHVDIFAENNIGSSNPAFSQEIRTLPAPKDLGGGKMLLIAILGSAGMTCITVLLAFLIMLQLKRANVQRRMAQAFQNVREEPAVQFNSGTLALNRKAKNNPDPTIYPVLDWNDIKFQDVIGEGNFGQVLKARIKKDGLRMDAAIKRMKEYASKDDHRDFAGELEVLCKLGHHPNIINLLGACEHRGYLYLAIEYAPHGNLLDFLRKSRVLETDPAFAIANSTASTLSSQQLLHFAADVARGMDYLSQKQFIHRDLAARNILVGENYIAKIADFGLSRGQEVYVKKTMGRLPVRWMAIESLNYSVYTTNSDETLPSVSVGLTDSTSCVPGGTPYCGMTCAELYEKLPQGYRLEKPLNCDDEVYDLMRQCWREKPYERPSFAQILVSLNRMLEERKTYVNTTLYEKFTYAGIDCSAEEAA

Molecule	reduction of histamine-induced vascular leakage compared with MPA-Br ([1]; parental Vasculotide 500 ng/mouse vs MPA-Br at equal dose or 125 ng/mouse)	vascular leakage (extravassation of Evans blue dye) vs vehicle treated mice ([1]; prophylactic IP dose one hour prior to cutaneous histamine challenge)	activation of MAPK (phosphorylated MAPK:total MAPK) (MAPK (Erk2))	survival following infection with X31 influenza [2]	activity score [3]	lung oxygenation (SpO2) [3]	thermal regulation (body temperature) [3]	overall survival of infected mice ([3]; ip)	Tie2 phosphorylation compared to no treatment (NT) (Tie2 receptor [4])	Tie2 phosphorylation compared to no treatment (NT) (Tie2 receptor [5])	Tie2 phosphorylation compared to no treatment (NT) (Tie2 receptor [6])
parental Vasculotide: 10 kDa 4-armed polyethylene glycol with Tie2 binding peptides (CHHHRHSF) attached via maleimide; mimics Ang1 [reference compound]	performed less well	significantly less vascular leakage	downstream activation of MAPK	ineffective at enhancing survival	significantly improved	significantly improved	significantly improved	significantly improved overall survival			
B1									significant increase in baseline Tie2 phosphorylation	significant increase in baseline Tie2 phosphorylation	significant increase in baseline Tie2 phosphorylation
